{
  "source": "patent US10058525B2",
  "about": "“Application of chlorogenic acid in preparing medicines for treating lupus erythematosus” (SICHUAN JIUZHANG BIOLOGICAL SCIENCE AND TECHNOLOGY CO., LTD., priority 2015, dated 2018)",
  "key": {"[1]": {"system": "lupus erythematosus model mice (renal glomerular capsule wall epithelial cells)", "assay": "Electron microscope observation of kidney samples, lupus model mice", "type": "in vivo, BALB/c mice", "conditions": "21 days", "description": "(§1) The back of mice was shaved and acutely exposed to Ultraviolet of 2 h/d*3 d, with a distance of 30 cm. After exposure to UV, 2.5 mg/kg of LPS was administrated once by ip, and after 24 h, the model was successfully established; the mice in the normal control group received normal saline via ip. 24 h after injection of LPS (ip), medicines were given to the model mice by intragastric administration. Chlorogenic acid test groups received high, middle, and low doses of medicines, by intragastric administration at a respective dosage of 10 mg/kg*d, 20 mg/kg*d, and 40 mg/kg*d. The positive control group A received 2 mg/kg*d of artesunate by stomach perfusion, while the positive control group B received 1 mg/kg*d of prednisone by stomach perfusion. Mice in the model and normal control group all received 0.4 ml/mouse normal saline by gavage. After 15 days of administration, animals in each group were taken blood by separating eyeballs on days 14, 21, 28, and after cultured in water bath at 37° C. for 1 h, the blood sample was centrifugated at 2000 r/min for 5 min, to draw serum for use. On day 21, after blood collection, animals were sacrificed by dislocation, followed by collection of liver and kidney, and they were placed in fixative solutions of electron microscope and light microscrope, respectively. On day 21, the sample used for observation under electron microscope was fixed in mixed stationary solution of 2% paraformaldehyde+0.25% glutaral for 4 h, rinsed with TBS, treated with 1% osmic acid, followed by fixation for 1 h, rinsed with buffer solution, dehydrated with acetone, dyed with uranyl acetate for 2 h, macerated in Epon812 and embedded, and cut into slices with LEICA ultramicrotome. The slices were stained with lead solution, and the sample was observed under transmission electron microscope when it was dry."}, "[2]": {"system": "lupus erythematosus model mice (kidney, liver)", "assay": "Triple staining (silver staining) of kidney and liver sections under light microscope, lupus model mice", "type": "in vivo, BALB/c mice", "description": "as §1, with “respectively.” for “respectively. On day 21, the sample used for observation under electron microscope was fixed in mixed stationary solution of 2% paraformaldehyde+0.25% glutaral for 4 h, rinsed with TBS, treated with 1% osmic acid, followed by fixation for 1 h, rinsed with buffer solution, dehydrated with acetone, dyed with uranyl acetate for 2 h, macerated in Epon812 and embedded, and cut into slices with LEICA ultramicrotome. The slices were stained with lead solution, and the sample was observed under transmission electron microscope when it was dry.”\n[…] The thickness of slice is 3 μm, and at beginning of staining, wax was routinely deprived to water. After oxidation with 0.5% periodic acid, the slice was macerated in hexamine silver fluid for about 2 h (constant temperature 58° C.), washed with distilled water, dyed with hematoxylin for 1 min. After washing with water, the slice was dyed by dropping the ponceau staining solution for 5 min, differentiated with 70% ethanol, dehydrated with gradient ethanol, cleared with xylene, and sealed with neutral gum."}, "[3]": {"conditions": "chlorogenic acid group administrated for 28 days"}},
  "note": "Entries after “also recorded” stand apart in the source; their conditions may differ.",
  "data": [
    {"smiles": "O=C(/C=C/c1ccc(O)c(O)c1)O[C@@H]1C[C@](O)(C(=O)O)C[C@@H](O)[C@H]1O", "note": "[Chlorogenic acid, 3-O-caffeoylquinic acid]", "values": [
      {"measurement": "proliferative degree of renal glomerular capsule wall epithelial cells", "setting": "[1]; chlorogenic acid (all dose groups)", "value": "somewhat relieved"},
      {"measurement": "proliferative degree of glomerular capsule wall epithelial cells", "setting": "[1]; high-dose group of chlorogenic acid", "value": "somewhat relieves; also recorded: the release degree in high dose group was the most obvious"},
      {"measurement": "staining of hepatic blood vessel basilar membrane", "setting": "[2]; [3]", "value": "somewhat recovered"},
      {"measurement": "thickening degree of renal glomerular and tubular basilar membrane", "setting": "[2]; [3]", "value": "reduced compared with normal mice"},
      {"measurement": "basilar membrane of renal glomerulus and tubule, pathological section", "setting": "[2]; chlorogenic acid, 21 days", "value": "increased thickness compared with normal mice"},
      {"measurement": "pathological section of kidney: conditions versus model group", "setting": "[2]; chlorogenic acid, 21 days, especially high dose group", "value": "better than the model group"},
      {"measurement": "thickening of renal glomerulus and tubular basement membrane (FIG. 8)", "setting": "[2]; high dose of chlorogenic acid, 28 days, ×50", "value": "thickening degree of renal glomerulus and tubular basement membrane reduces"}
    ]}
  ]
}
